Measurements: patent publication US20230219956A1 (BETTA PHARMACEUTICALS CO.,LTD, priority 2019, published 2023)

Assays:
[1] = Permeability assay, Caco-2 monolayer cell model; type: in vitro ADME; details: human, Caco-2, compound 5 μM, Verapamil 0 μM
Experimental: The Caco-2 monolayer cell model was used to determine the bidirectional permeability and efflux rate of the example compounds and the comparative compounds. In the experiment, 50 μL of 6.86×10^5 cells/mL Caco-2 cells (passage 45) were seeded into 96-well cell culture plates, and cultured continuously for 14-18 days for transport experiments. The corresponding compound was administered bidirectionally with or without verapamil (P glycoprotein (P-gp) inhibitor), at a concentration of 5 μM. At 37° C., after incubating with shaking at 150 rpm for 120 minutes, the top and basal samples were collected, and the content of each compound in the samples was determined by liquid chromatography tandem mass spectrometry (LC/MS/MS).
Refer to the Table 4 for permeability data of some compounds in the examples.

MIA-PACA-2 cells = test: Cell proliferation assay, MIA-PACA-2 cells (Cell-titer Glo); type: cell-based; details: Homo sapiens, 96 h incubation
In short: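 MIA-PACA-2 cells, 600 per well in ultra-low-attachment plates, exposed 96 h at 37 °C to compound at 0.025–10000 nM final (0.25% DMSO). Viability by CellTiter-Glo luminescence; inhibition normalised to DMSO and cell-free controls, IC50 from curve fit.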

H358 cells = test: Cell proliferation assay, H358 cells (Cell-titer Glo); type: cell-based; details: Homo sapiens, NCI-H358, 96 h incubation
In short: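 H358 cells, 2000 per well in ultra-low-attachment plates, treated after overnight culture with compound at 10000 to 1.5 nM plus 0 (0.25% DMSO final) for 96 h at 37 °C, 5% CO2. Cell-titer Glo luminescence, normalised to DMSO and cell-free controls; IC50 from curve fit.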

SMILES	Papp A→B at 120 min, 5 μM ([1]; 120 minutes) [×10⁻⁶ cm/s]	Papp B→A at 120 min, 5 μM ([1]; 120 minutes) [×10⁻⁶ cm/s]	efflux ratio at 120 min, 5 μM ([1]; read-out: RE (Efflux Ratio))	IC50 (MIA-PACA-2 cells) [nM]	IC50 (H358 cells) [nM]
C=CC(=O)N1CC2(CCN(c3nc(C4CCN(C)CC4)nc4c(OCC(F)(F)F)c(-c5c(C)cnc6[nH]ncc56)c(C=C)cc34)CC2)C1 [Example 53, 1-(7-(7-(5-methyl-1H-pyrazolo[3,4-b]pyridin-4-yl)-2-(1-methylpiperidine-4-yl)-8-(2,2,2-trifluoroethoxy)-6-vinylquinazolin-4-yl)-2,7-diazaspiro[3.5]nonan-2-yl)prop-2-en-1-one]				105	163
C=CC(=O)N1CC2(CCN(c3nc(C4CCN(C)CC4)nc4c(OCC(F)(F)F)c(-c5c(C)ccc6[nH]ncc56)c(C5CC5)cc34)CC2)C1 [Example 16]				4.8	3.2
C=CC(=O)N1CC2(CCN(c3nc(C4CCN(C)CC4)nc4c(OCC(F)F)c(-c5c(C)ccc6[nH]ncc56)c(CC)cc34)CC2)C1 [Example 28]				61.4	44.7
C=CC(=O)N1CC2(CCN(c3nc(C4CN(CC(C)(C)O)C4)nc4c(OCC(F)(F)F)c(-c5c(C)ccc6[nH]ncc56)c(CC)cc34)CC2)C1 [Example 38, 1-(7-(6-ethyl-2-(1-(2-hydroxy-2-methylpropyl)azetidin-3-yl)-7-(5-methyl-1H-indazol-4-yl)-8-(2,2,2-trifluoroethoxy)quinazolin-4-yl)-2,7-diazaspiro[3.5]nonan 2-yl) prop-2-en-1-one]				74.2	59.3
C=CC(=O)N1CC2(CCN(c3nc(C4CCN(C)CC4)nc4c(OCC(F)(F)F)c(-c5ccc6[nH]ncc6c5)c(C5CC5)cc34)CC2)C1 [Example 17]				1540	8440
C=CC(=O)N1CC2(CCN(c3nc(C4CCNCC4)nc4c(OCC(F)(F)F)c(-c5c(C)ccc6[nH]ncc56)c(C=C)cc34)CC2)C1 [Example 63, 1-(7-(7-(5-methyl-1H-indazol-4-yl)-2-(piperidin-4-yl)-8-(2,2,2-trifluoroethoxy)-6-vinylquinazoline-4-yl)-2,7-diazaspiro[3.5]nonan-2-yl)prop-2-en-1-one]				406	187
C=CC(=O)N1CC2(CCN(c3nc(C4CCN(C5CCC(O)CC5)CC4)nc4c(OCC(F)(F)F)c(-c5c(C)ccc6[nH]ncc56)c(C=C)cc34)CC2)C1 (centres unmarked) [Example 73]				24.1	24.3
C=CC(=O)N1CC2(CCN(c3nc(C4CCN(C)CC4)nc4c(OC)c(-c5c(C)ccc6[nH]ncc56)c(Cl)cc34)CC2)C1 [Example 12, 1-(7-(6-chloro-8-methoxy-7-(5-methyl-1H-indazol-4-yl)-2-(1-methylpiperidine-4-yl)-quinazolin-4-yl)-2,7-diazaspiro[3.5]nonan-2-yl)prop-2-en-1-one]				107	76.2
C=CC(=O)N1CC2(C1)CN(c1nc(C3CCN(C)CC3)nc3c(OCC(F)(F)F)c(-c4c(C)ccc5[nH]ncc45)c(C=C)cc13)C2 [Example 50, 1-(6-(7-(5-methyl-1H-indazol-4-yl)-2-(1-methylpiperidin-4-yl)-8-(2,2,2-trifluoroethoxy)-6-vinylquinazolin-4-yl)-2,6-diazaspiro[3.3]heptane-2-yl)prop-2-en-1-one]				278	243
C=CC(=O)N1CC2(CCN(c3nc(C4CCN(C)CC4)nc4c(OCCOC)c(C5CC5)c(C5CC5)cc34)CC2)C1 [Example 23]				647	1700
C=CC(=O)N1CC2(CCN(c3nc(C4CCN(C)CC4)nc4c(OCCOC)c(-c5c(C)ccc6[nH]ncc56)c(CC)cc34)CC2)C1 [Example 30]				171	60.5

Now from value to molecule:

Papp A→B at 120 min, 5 μM ([1]; 120 minutes) [×10⁻⁶ cm/s]	Papp B→A at 120 min, 5 μM ([1]; 120 minutes) [×10⁻⁶ cm/s]	efflux ratio at 120 min, 5 μM ([1]; read-out: RE (Efflux Ratio))	IC50 (MIA-PACA-2 cells) [nM]	IC50 (H358 cells) [nM]	SMILES
0.06	6.75	113			C=CC(=O)N1CC2(CCN(c3nc(OC4CCN(C5CCOCC5)CC4)nc4c(OCC(F)(F)F)c(-c5c(C)ccc6[nH]ncc56)c(C=C)cc34)CC2)C1 [Compound D1, reference compound]
			33.7	37.6	C=CC(=O)N1CC2(CCN(c3nc(C4CCN(Cc5ccccc5)CC4)nc4c(OCC(F)(F)F)c(-c5c(C)ccc6[nH]ncc56)c(C=C)cc34)CC2)C1 [Example 77, 1-(7-(2-(1-benzylpiperidin-4-yl)-7-(5-methyl-1H-indazol-4-yl)-8-(2,2,2-trifluoroethoxy)-6-vinylquinazolin-4-yl)-2,7-diazarospiro [3.5]nonan-2-yl) propyl-2-en-1-one]
			778	466	C=CC(=O)N1CC2(CCN(c3nc(C4CN(C(=O)C5CC5)C4)nc4c(OCC(F)(F)F)c(-c5c(C)ccc6[nH]ncc56)c(CC)cc34)CC2)C1 [Example 45, 1-(7-(2-(1-(Cyclopropanecarbonyl)azacyclobutane-3-yl)-6-ethyl-7-(5-methyl-1H-indazol-4-yl)-8-(2,2,2-trifluoroethoxy)quinazolin-4-yl)-2,7-diazaspo [3.5]nonan-2-yl) propyl-2-en-1-one]
			378	315	C=CC(=O)N1CC2(CCN(c3nc(C4CN(C5CCC5)C4)nc4c(OCC(F)(F)F)c(-c5c(C)ccc6[nH]ncc56)c(CC)cc34)CC2)C1 [Example 43, 1-(7-(2-(1-cyclobutylazocyclobutane-3-yl)-6-ethyl-7-(5-methyl-1H-indazole-4-yl)-8-(2,2,2-trifluoroethoxy)quinazolin-4-yl)-2,7-diazarospiro [3.5]nonan-2-yl) propyl-2-en-1-one]
			6.9	4.6	C=CC(=O)N1CC2(CCN(c3nc(C4CCN(C5CCC(C#N)CC5)CC4)nc4c(OCC(F)(F)F)c(-c5c(C)ccc6[nH]ncc56)c(C=C)cc34)CC2)C1 (centres unmarked) [Example 67, 4-(4-(4-(2-acryloyl-2,7-diazazospiro [3.5]nonan-7-yl)-7-(5-methyl-1H-indazole-4-yl)-8-(2,2,2-trifluoroethoxy)-6-vinylquinazolin-2-yl)piperidin-1-yl) cyclohexane-1-methylnitrile]
			21.4	19.3	C=CC(=O)N1CC2(CCN(c3nc(C4CCN(CC5CC(F)(F)C5)CC4)nc4c(OCC(F)(F)F)c(-c5c(C)ccc6[nH]ncc56)c(C=C)cc34)CC2)C1 [Example 76, 1-(7-(2-(1-((3,3-difluorocyclobutyl)methyl)piperidin-4-yl)-7-(5-methyl-1H-indazole-4-yl)-8-(2,2,2-trifluoroethoxy)-6-vinylquinazolin-4-yl)-2,7-diazspiro [3.5]nonan-2-yl) propyl-2-en-1-one]
			10.3	6.7	C=CC(=O)N1CC2(CCN(c3nc(C4CCN(C5CCN(C6CC6)CC5)CC4)nc4c(OCC(F)(F)F)c(-c5c(C)ccc6[nH]ncc56)c(C=C)cc34)CC2)C1 [Example 74, 1-(7-(2-(1′-cyclopropyl-[1,4′-bipiperidine]-4-yl)-7-(5-methyl-1H-indazole-4-yl)-8-(2,2,2-trifluoroethoxy)-6-vinylquinazolin-4-yl)-2,7-diazspiro [3.5]nonan-2-yl) propyl-2-en-1-one]
			8	4.9	C=CC(=O)N1CC2(CCN(c3nc(C4CCN(CCO)CC4)nc4c(OCC(F)(F)F)c(-c5c(C)ccc6[nH]ncc56)c(C=C)cc34)CC2)C1 [Example 61, 1-(7-(2-(1-(2-(hydroxyethyl))piperidin-4-yl)-7-(5-methyl-1H-indazole-4-yl)-8-(2,2,2-trifluoroethoxy)-6-vinylquinazolin-4-yl)-2,7-diazarospiro [3.5]nonan-2-yl) propyl-2-en-1-one]
			6.9	6.4	C=CC(=O)N1CC2(CCN(c3nc(C4CCN(CCC#N)CC4)nc4c(OCC(F)(F)F)c(-c5c(C)ccc6[nH]ncc56)c(C=C)cc34)CC2)C1 [Example 59, 3-(4-(4-(2-acryloyl-2,7-diazazospiro [3.5]nonan-7-yl)-7-(5-methyl-1H-indazole-4-yl)-8-(2,2,2-trifluoroethoxy)-6-vinylquinazolin-2-yl)piperidin-1-yl) propionitrile]
			188	462	C=CC(=O)N1CCC2(CC1)CN(c1nc(C3CCN(C)CC3)nc3c(OCC(F)(F)F)c(-c4c(C)ccc5[nH]ncc45)c(C=C)cc13)C2 [Example 51, 1-(2-(7-(5-methyl-1H-indazol-4-yl)-2-(1-methylpiperidin-4-yl)-8-(2,2,2-trifluoroethoxy)-6-vinylquinazolin-4-yl)-2,7-diazspiro [3.5]nonan-2-yl) propyl-2-en-1-one]
			3.7	3.4	C=CC(=O)N1CC2(CCN(c3nc(C4CCN(C5CCC5)CC4)nc4c(OCC(F)(F)F)c(-c5c(C)ccc6[nH]ncc56)c(C=C)cc34)CC2)C1 [Example 69, 1-(7-(2-(1-cyclobutylpiperidin-4-yl)-7-(5-methyl-1H-indazol-4-yl)-8-(2,2,2-trifluoroethoxy)-6-vinylquinazolin-4-yl)-2,7-diazspiro [3.5]nonan-2-yl) propyl-2-en-1-one]
			2.4	1.6	C=CC(=O)N1CC2(CCN(c3nc(C4CCN(C(C)CO)CC4)nc4c(OCC(F)(F)F)c(-c5c(C)ccc6[nH]ncc56)c(C=C)cc34)CC2)C1 (stereo not drawn) [Example 68, l-(7-(2-(l-(1-hydroxypropane-2-yl)piperidin-4-yl)-7-(5-methyl-1H-indazol-4-yl)-8-(2,2,2-trifluoroethoxy)-6-vinylquinazolin-4-yl)-2,7-diazspiro [3.5]nonan-2-yl) propyl-2-en-1-one]
